Laboratory results reported in ChEMBL document CHEMBL4308841, “Synthesis, in vitro antiproliferative activity, and kinase inhibitory effects of pyrazole-containing diarylureas and diarylamides” (Eur J Med Chem, 2018).

Key:
NCI/ADR-RES = test: Growth inhibition of human NCI/ADR-RES cells assessed as cell growth at 1 uM incubated for 48 hrs by sulforhodamine B assay relative to control; format: functional; settings: read-out: Activity
T47D = test: Growth inhibition of human T47D cells assessed as cell growth at 100 uM incubated for 48 hrs by sulforhodamine B assay relative to control; format: functional; settings: read-out: Activity
U-251 = test: Growth inhibition of human U251 cells assessed as cell growth at 100 uM incubated for 48 hrs by sulforhodamine B assay relative to control; format: functional; settings: U-251, 48 h, read-out: Activity
RXF 393 = test: Growth inhibition of human RXF393 cells assessed as cell growth at 100 uM incubated for 48 hrs by sulforhodamine B assay relative to control; format: functional; settings: RXF 393, 48 h, read-out: Activity
PC-3 = test: Growth inhibition of human PC3 cells assessed as cell growth at 0.1 uM incubated for 48 hrs by sulforhodamine B assay relative to control; format: functional; settings: PC-3, 48 h, read-out: Activity
NCI-H322M = test: Growth inhibition of human NCI-H322M cells assessed as cell growth at 100 uM incubated for 48 hrs by sulforhodamine B assay relative to control; format: functional; settings: read-out: Activity
A549 = test: Growth inhibition of human A549/ATCC cells assessed as cell growth at 0.1 uM incubated for 48 hrs by sulforhodamine B assay relative to control; format: functional; settings: A549, 48 h, read-out: Activity
MDA-MB-435 = test: Growth inhibition of human MDA-MB-435 cells assessed as cell growth at 0.1 uM incubated for 48 hrs by sulforhodamine B assay relative to control; format: functional; settings: MDA-MB-435, 48 h, read-out: Activity
HOP-62 = test: Growth inhibition of human HOP62 cells assessed as cell growth at 100 uM incubated for 48 hrs by sulforhodamine B assay relative to control; format: functional; settings: HOP-62, 48 h, read-out: Activity
HCT-15 = test: Growth inhibition of human HCT15 cells assessed as cell growth at 1 uM incubated for 48 hrs by sulforhodamine B assay relative to control; format: functional; settings: HCT-15, 48 h, read-out: Activity
SF-268 = test: Growth inhibition of human SF268 cells assessed as cell growth at 1 uM incubated for 48 hrs by sulforhodamine B assay relative to control; format: functional; settings: SF-268, 48 h, read-out: Activity
NCI-H460 = test: Growth inhibition of human NCI-H460 cells assessed as cell growth at 100 uM incubated for 48 hrs by sulforhodamine B assay relative to control; format: functional; settings: NCI-H460, 48 h, read-out: Activity
MDA-MB-231 = test: Growth inhibition of human MDA-MB-231 cells assessed as cell growth at 0.01 uM incubated for 48 hrs by sulforhodamine B assay relative to control; format: functional; settings: MDA-MB-231, 48 h, read-out: Activity
CCRF-CEM [1] = test: Growth inhibition of human CCRF-CEM cells incubated for 48 hrs by sulforhodamine B assay; format: functional, cell-based
M14 = test: Growth inhibition of human M14 cells assessed as cell growth at 100 uM incubated for 48 hrs by sulforhodamine B assay relative to control; format: functional; settings: M14, 48 h, read-out: Activity
CCRF-CEM [2] = test: Growth inhibition of human CCRF-CEM cells assessed as cell growth at 0.1 uM incubated for 48 hrs by sulforhodamine B assay relative to control; format: functional; settings: read-out: Activity
Malme-3M [3] = test: Growth inhibition of human MALME-3M cells incubated for 48 hrs by sulforhodamine B assay; format: functional, cell-based
NCI-H226 = test: Growth inhibition of human NCI-H226 cells incubated for 48 hrs by sulforhodamine B assay; format: functional, cell-based; settings: NCI-H226, 48 h
RPMI-8226 = test: Growth inhibition of human RPMI8226 cells assessed as cell growth at 1 uM incubated for 48 hrs by sulforhodamine B assay relative to control; format: functional; settings: RPMI-8226, 48 h, read-out: Activity
COLO 205 = test: Growth inhibition of human COLO205 cells assessed as cell growth at 0.1 uM incubated for 48 hrs by sulforhodamine B assay relative to control; format: functional; settings: COLO 205, 48 h, read-out: Activity
MDA-MB-468 [4] = test: Growth inhibition of human MDA-MB-468 cells incubated for 48 hrs by sulforhodamine B assay; format: functional, cell-based; settings: MDA-MB-468, 48 h
SK-MEL-28 = test: Growth inhibition of human SK-MEL-28 cells assessed as cell growth at 0.1 uM incubated for 48 hrs by sulforhodamine B assay relative to control; format: functional; settings: SK-MEL-28, 48 h, read-out: Activity
SW-620 = test: Growth inhibition of human SW620 cells incubated for 48 hrs by sulforhodamine B assay; format: functional, cell-based; settings: SW-620, 48 h
SK-MEL-5 = test: Growth inhibition of human SK-MEL-5 cells assessed as cell growth at 0.1 uM incubated for 48 hrs by sulforhodamine B assay relative to control; format: functional; settings: SK-MEL-5, 48 h, read-out: Activity
NCI-H522 = test: Growth inhibition of human NCI-H522 cells assessed as cell growth at 0.1 uM incubated for 48 hrs by sulforhodamine B assay relative to control; format: functional; settings: NCI-H522, 48 h, read-out: Activity
MDA-MB-468 [5] = test: Growth inhibition of human MDA-MB-468 cells assessed as cell growth at 1 uM incubated for 48 hrs by sulforhodamine B assay relative to control; format: functional; settings: MDA-MB-468, 48 h, read-out: Activity
Malme-3M [6] = test: Growth inhibition of human MALME-3M cells assessed as cell growth at 0.1 uM incubated for 48 hrs by sulforhodamine B assay relative to control; format: functional; settings: read-out: Activity
CCRF-CEM [7] = test: Growth inhibition of human CCRF-CEM cells assessed as cell growth at 1 uM incubated for 48 hrs by sulforhodamine B assay relative to control; format: functional; settings: read-out: Activity
UACC-257 = test: Growth inhibition of human UACC257 cells assessed as cell growth at 0.1 uM incubated for 48 hrs by sulforhodamine B assay relative to control; format: functional; settings: UACC-257, 48 h, read-out: Activity
SF-539 = test: Growth inhibition of human SF539 cells assessed as cell growth at 0.01 uM incubated for 48 hrs by sulforhodamine B assay relative to control; format: functional; settings: SF-539, 48 h, read-out: Activity
[8] = read-out: LC50 (the source's name)
[9] = read-out: pLC50 (the source's name) (converted)

COc1cc(Cl)cc(-c2nn(-c3cccc(NC(=O)Nc4ccc(Cl)c(C(F)(F)F)c4)c3)cc2-c2ccncc2)c1
growth at 1 µM (NCI/ADR-RES): 66% | growth at 100 µM (T47D): -18% | growth at 100 µM (U-251): -100% | growth at 100 µM (RXF 393): -58% | growth at 0.1 µM (PC-3): 91% | growth at 100 µM (NCI-H322M): -22% | growth at 0.1 µM (A549): 98% | growth at 0.1 µM (MDA-MB-435): 93% | growth at 100 µM (HOP-62): -48% | growth at 1 µM (HCT-15): 35% | growth at 1 µM (SF-268): 83% | growth at 100 µM (NCI-H460): -62% | growth at 0.01 µM (MDA-MB-231): 93% | GI50 (CCRF-CEM [1]; read-out: GI50): 613 nM | CC50 (CCRF-CEM [1]; [8]): > 100 µM | TGI (CCRF-CEM [1]; read-out: TGI): 35.5 µM | CC50 (CCRF-CEM [1]; [9]): > 100 µM | growth at 100 µM (M14): -70% | growth at 0.1 µM (CCRF-CEM [2]): 97% | GI50 (Malme-3M [3]; read-out: GI50): 1210 nM | CC50 (Malme-3M [3]; [8]): > 100 µM | TGI (Malme-3M [3]; read-out: TGI): 85 µM | GI50 (Malme-3M [3]; read-out: pGI50 (converted)): 1700 nM | CC50 (Malme-3M [3]; [9]): > 100 µM | TGI (Malme-3M [3]; read-out: pTGI (converted)): 3.16 µM | GI50 (NCI-H226; read-out: GI50): 2500 nM | LC50 (NCI-H226; read-out: LC50): > 100 µM | TGI (NCI-H226; read-out: TGI): 14.7 µM | GI50 (NCI-H226; read-out: pGI50 (converted)): 2510 nM | LC50 (NCI-H226; read-out: pLC50 (converted)): > 100 µM | TGI (NCI-H226; read-out: pTGI (converted)): 14.8 µM | growth at 1 µM (RPMI-8226): 17% | growth at 0.1 µM (COLO 205): 99% | IC50 (MDA-MB-468 [4]): 990 nM | GI50 (MDA-MB-468 [4]; read-out: GI50): 900 nM | CC50 (MDA-MB-468 [4]; [8]): > 100 µM | TGI (MDA-MB-468 [4]; read-out: TGI): 54.7 µM | GI50 (MDA-MB-468 [4]; read-out: pGI50 (converted)): 1000 nM | CC50 (MDA-MB-468 [4]; [9]): > 100 µM | TGI (MDA-MB-468 [4]; read-out: pTGI (converted)): 5.5 µM | growth at 0.1 µM (SK-MEL-28): 106% | GI50 (SW-620; read-out: GI50): 1510 nM | LC50 (SW-620; read-out: LC50): 5.78 µM | TGI (SW-620; read-out: TGI): 10.5 µM | GI50 (SW-620; read-out: pGI50 (converted)): 1620 nM | LC50 (SW-620; read-out: pLC50 (converted)): 57.5 µM | TGI (SW-620; read-out: pTGI (converted)): 10.5 µM | growth at 0.1 µM (SK-MEL-5): 98% | growth at 0.1 µM (NCI-H522): 77% | growth at 1 µM (MDA-MB-468 [5]): 50% | growth at 0.1 µM (Malme-3M [6]): 79% | growth at 1 µM (CCRF-CEM [7]): 37% | growth at 0.1 µM (UACC-257): 59% | growth at 0.01 µM (SF-539): 96%
